# Assay results reported in publication PMC8347148, “An Evaluation of Human Induced Pluripotent Stem Cells to Test for Cardiac Developmental Toxicity” (International Journal of Molecular Sciences, 2021).
# System: hiPSC
# Assay: hiPSC-EST biostatistical prediction model
# Design: species or system human
# Conditions: for hiPSC (day 25 cluster) Biostatistical Embryotoxicity Classification: EST prediction model with contractile ID50, hiPSC IC50 and hFF IC50; for hiPSC (day 10 qPCR) Biostatistical Embryotoxicity Classification: EST prediction model with d10 TBX5 ID50
# Description: The prediction model uses a series of equations to perform a linear discriminant analysis using determined IC50 and ID50 values determined from dose–response curves. […] Importantly, half-maximal concentrations found for 5-FU and atRA were decades lower than the maximum plasma concentration (Cmax) achieved during human exposure underscoring the strong potential of these two compounds to elicit embryotoxic outcomes in vivo.
# To compare the efficacy of qPCR-based embryotoxicity classifications versus contractile assay-based classifications, the ID50 values generated from 5-FU and atRA TBX5 mRNA dose–response curves were compared against the ID50 values from the contractile assay curves in the EST biostatistical model.
smiles,measurement,setting,value
"O=c1[nH]cc(F)c(=O)[nH]1 [5-Fluorouracil, 5-fluorouracil]",hiPSC (day 25 cluster) Biostatistical Embryotoxicity Classification,,Strongly embryotoxic
same,hiPSC (day 10 qPCR) Biostatistical Embryotoxicity Classification,,Strongly embryotoxic
"CC1(C)S[C@@H]2[C@H](NC(=O)Cc3ccccc3)C(=O)N2[C@H]1C(=O)O [Penicillin G, penicillin G]",hiPSC (day 25 cluster) Biostatistical Embryotoxicity Classification,,Not embryotoxic
same,hiPSC (day 25 cluster) Biostatistical Embryotoxicity Classification,listed as PenG,non-embryotoxic
same,hiPSC (day 10 qPCR) Biostatistical Embryotoxicity Classification,,Not embryotoxic
same,hiPSC (day 10 qPCR) Biostatistical Embryotoxicity Classification,listed as PenG,non-embryotoxic
"CC1=C(/C=C/C(C)=C/C=C/C(C)=C/C(=O)O)C(C)(C)CCC1 [All-Trans Retinoic Acid, all-trans retinoic acid]",hiPSC (day 25 cluster) Biostatistical Embryotoxicity Classification,,Strongly embryotoxic
same,hiPSC (day 10 qPCR) Biostatistical Embryotoxicity Classification,,Strongly embryotoxic
